Measurements: ChEMBL document CHEMBL5543127, “Design, Synthesis, and Biological Evaluation of 2-Phenoxyalkylhydrazide Benzoxazole Derivatives as Quorum Sensing Inhibitors with Strong Antibiofilm Effect” (J Med Chem, 2024)
Values after ≈ are worked out from the molar mass of the structure shown. Active and inactive are the calls of the source. The rule behind the calls is not given here.

Tests used:
Bacillus subtilis = experiment: Anti-microbial activity against Bacillus subtilis ATCC9372 incubated for 20 hrs By CLSI based micro-dilution method; type: functional
Staphylococcus aureus [1] = experiment: Anti-microbial activity against methicillin-resistant Staphylococcus aureus ATCC43300 incubated for 20 hrs By CLSI based micro-dilution method; type: functional
Staphylococcus aureus [2] = experiment: Anti-microbial activity against erythromycin-susceptible Staphylococcus aureus ATCC25923 incubated for 20 hrs By CLSI based micro-dilution method; type: functional
[3] = Inhibition of quorum sensing system in Pseudomonas aeruginosa PAO1 at logarithmic growth period assessed as inhibition of pyocyanin production at 102.4 microg/ml incubated for 18 hrs by pyocyanin inhibition assay; conditions: dose 102.4 µg/ml
Pseudomonas aeruginosa [4] = experiment: Induction of anti-bacterial effect in Pseudomonas aeruginosa PAO1 assessed as synergistic effect by measuring reduction in bacterial survival in presence of ciprofloxacin measured after 24 hrs incubation; type: functional, organism-based; conditions: dose 8-128 µg/ml
Pseudomonas aeruginosa [5] = experiment: Antibiofilm activity against logarithmic growth phase Pseudomonas aeruginosa PAO1 assessed as inhibition of biofilm formation at 16 microg/ml incubated for 20 hrs by crystal violet staining based analysis; type: functional
Pseudomonas aeruginosa [6] = experiment: Antibiofilm activity against logarithmic growth phase Pseudomonas aeruginosa PAO1 assessed as inhibition of biofilm formation at 32 microg/ml incubated for 20 hrs by crystal violet staining based analysis; type: functional
Bacillus pumilus = experiment: Anti-microbial activity against Bacillus pumilus CMCC63202 incubated for 20 hrs By CLSI based micro-dilution method; type: functional
Escherichia coli = experiment: Anti-microbial activity against penicillin-susceptible Escherichia coli ATCC25922 incubated for 20 hrs By CLSI based micro-dilution method; type: functional
Pseudomonas aeruginosa [7] = experiment: Anti-microbial activity against penicillin-susceptible Pseudomonas aeruginosa 27853 incubated for 20 hrs By CLSI based micro-dilution method; type: functional
Pseudomonas aeruginosa [8] = experiment: Anti-microbial activity against Pseudomonas aeruginosa PAO1 incubated for 20 hrs By CLSI based micro-dilution method; type: functional
Pseudomonas aeruginosa [9] = experiment: Inhibition of protease in logarithmic growth phase Pseudomonas aeruginosa PAO1 assessed as inhibition rate at 102.4 microg/ml measured after 32 hrs; conditions: dose 102.4 µg/ml
Pseudomonas aeruginosa [10] = experiment: Antibacterial activity against Pseudomonas aeruginosa PAO1 at logarithmic growth phase assessed as growth inhibition at 153.6 microg/ml measured upto 25 hrs by growth curve assay; type: functional, organism-based; conditions: dose 153.6 µg/ml
Pseudomonas aeruginosa [11] = experiment: Antibacterial activity against Pseudomonas aeruginosa 27853 at logarithmic growth phase assessed as growth inhibition at 153.6 microg/ml measured upto 25 hrs by growth curve assay; type: functional, organism-based; conditions: dose 153.6 µg/ml
Pseudomonas aeruginosa [12] = experiment: Induction of anti-bacterial effect in Pseudomonas aeruginosa PAO1 assessed as synergistic effect by measuring reduction in bacterial survival in presence of clarithromycin measured after 24 hrs incubation; type: functional, organism-based; conditions: dose 8-128 µg/ml

Row | Compound | MIC (Bacillus subtilis) [µg/mL] | MIC (Staphylococcus aureus [1]) [µg/mL] | MIC (Staphylococcus aureus [2]) [µg/mL] | inhibition [3] | Activity (Pseudomonas aeruginosa [4]) | inhibition at 16 µg/mL (Pseudomonas aeruginosa [5]) [%] | inhibition at 32 µg/mL (Pseudomonas aeruginosa [6]) [%] | MIC (Bacillus pumilus) [µg/mL] | MIC (Escherichia coli) [µg/mL] | MIC (Pseudomonas aeruginosa [7]) [µg/mL] | MIC (Pseudomonas aeruginosa [8]) [µg/mL] | inhibition (Pseudomonas aeruginosa [9]) [%] | Activity (Pseudomonas aeruginosa [10]) | Activity (Pseudomonas aeruginosa [11]) | Activity (Pseudomonas aeruginosa [12]) | inhibition (Pseudomonas aeruginosa [5]; dose 16.0 µg/ml)
1 | O=C(COc1ccc(Cl)cc1)NNc1nc2ccccc2o1 | 512 (≈ 1610 µM) | 256 (≈ 806 µM) | 512 (≈ 1610 µM) | 46.9% | Dose-Dependent Effect | > 50 | > 25.4 | > 512 | > 512 | 512 (≈ 1610 µM) | > 512 | 10 | inactive | inactive | Dose-Dependent Effect | –
2 | Cc1ccc(OCC(=O)NNc2nc3ccccc3o2)cc1 | 512 (≈ 1720 µM) | 512 (≈ 1720 µM) | 512 (≈ 1720 µM) | inactive | – | – | – | > 512 | > 512 | 512 (≈ 1720 µM) | > 512 | 13.9 | inactive | inactive | – | –
3 | COc1cccc(/C=N/Nc2nc3ccccc3o2)c1 | 512 (≈ 1920 µM) | > 512 | 128 (≈ 479 µM) | inactive | – | – | – | 512 (≈ 1920 µM) | > 512 | > 512 | > 512 | – | inactive | inactive | – | –
4 | CCCCCCCCCCCC(=O)N/N=c1\sc2ccccc2n1C | > 512 | > 512 | > 512 | – | – | – | – | > 512 | > 512 | > 512 | > 512 | > 20 | inactive | inactive | – | –
5 | Clc1ccc(/C=N/Nc2nc3ccccc3o2)cc1 | 512 (≈ 1880 µM) | 512 (≈ 1880 µM) | 64 (≈ 236 µM) | inactive | – | – | – | > 512 | > 512 | > 512 | > 512 | 21.4 | inactive | inactive | – | –
6 | Clc1cccc(/C=N/Nc2nc3ccccc3o2)c1 | 512 (≈ 1880 µM) | > 512 | 256 (≈ 942 µM) | inactive | – | – | – | 512 (≈ 1880 µM) | > 512 | > 512 | > 512 | – | inactive | inactive | – | –
7 | Cn1/c(=N/NC(=O)c2ccc(F)cc2)sc2ccccc21 | > 512 | > 512 | > 512 | – | – | – | – | > 512 | > 512 | > 512 | > 512 | > 20 | inactive | inactive | – | –
8 | O=C(CCCCCOc1ccc(F)cc1)NNc1nc2ccccc2o1 | 512 (≈ 1430 µM) | > 512 | 512 (≈ 1430 µM) | inactive | – | – | – | > 512 | > 512 | 512 (≈ 1430 µM) | > 512 | – | – | – | – | –
9 | O=C(CCCOc1ccc(Cl)cc1)NNc1nc2ccccc2o1 | 512 (≈ 1480 µM) | 256 (≈ 740 µM) | 256 (≈ 740 µM) | inactive | Dose-Dependent Effect | – | > 25.4 | 512 (≈ 1480 µM) | > 512 | 512 (≈ 1480 µM) | > 512 | 30 | – | – | Dose-Dependent Effect | Active
10 | COc1ccc(OCCCCCC(=O)NNc2nc3ccccc3o2)cc1 | 512 (≈ 1390 µM) | 512 (≈ 1390 µM) | 256 (≈ 693 µM) | inactive | – | – | – | 512 (≈ 1390 µM) | > 512 | 512 (≈ 1390 µM) | > 512 | – | – | – | – | –
11 | O=C(COc1cccc(F)c1)NNc1nc2ccccc2o1 | 512 (≈ 1700 µM) | > 512 | 512 (≈ 1700 µM) | inactive | – | – | – | > 512 | > 512 | 512 (≈ 1700 µM) | 512 (≈ 1700 µM) | 10 | inactive | inactive | – | –
12 | Cc1cccc2sc(NNC(=O)CCCCOc3ccc(Cl)cc3)nc12 | 512 (≈ 1310 µM) | 512 (≈ 1310 µM) | > 512 | 42.2% | – | – | – | 512 (≈ 1310 µM) | > 512 | > 512 | > 512 | – | – | – | – | –
13 | COc1ccccc1/C=N/Nc1nc2ccccc2o1 | 512 (≈ 1920 µM) | > 512 | 256 (≈ 958 µM) | inactive | – | – | – | > 512 | > 512 | > 512 | > 512 | – | inactive | inactive | – | –
